Results taken from publication PMC7093416, “Selective USP7 inhibition elicits cancer cell killing through a p53-dependent mechanism” (Scientific Reports, 2020).

How the values were obtained:
BZW2 = biological target: T1, BZW2 (Homo sapiens, UniProt Q9Y6E2); test: XL177A-DTB chemoproteomic profiling with XL177A competition, BZW2; assay type: binding; conditions: BZW2 reporter ion intensity
T1 construct: endogenous in cells; host or cells: HEK 293AD lysate
T1 sequence (Q9Y6E2 1-419): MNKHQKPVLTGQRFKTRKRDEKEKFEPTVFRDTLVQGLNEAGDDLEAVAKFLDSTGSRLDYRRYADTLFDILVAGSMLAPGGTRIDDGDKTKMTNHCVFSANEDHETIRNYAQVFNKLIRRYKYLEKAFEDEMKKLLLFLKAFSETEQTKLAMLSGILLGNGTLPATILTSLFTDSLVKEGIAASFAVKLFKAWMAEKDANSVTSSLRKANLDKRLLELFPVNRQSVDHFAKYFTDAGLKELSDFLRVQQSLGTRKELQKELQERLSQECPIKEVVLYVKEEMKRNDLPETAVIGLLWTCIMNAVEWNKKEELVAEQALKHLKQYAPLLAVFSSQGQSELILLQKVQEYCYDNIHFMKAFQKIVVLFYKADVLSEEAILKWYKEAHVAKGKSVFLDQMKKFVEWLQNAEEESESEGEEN
Method: HEK 293AD cells were lysed as described above, and the lysate was cleared by centrifugation. […] SDS was added to a final concentration of 1.2% (27.2 μL of a 10% stock), and denatured by heating to 80 °C for 5 minutes. After cooling to RT, 1125 μL 1X PBS was added to dilute the final SDS concentration to 0.2%. 50 μL streptavidin agarose slurry was added to each sample, followed by incubation at RT for 3 hours. After streptavidin enrichment, samples were washed vigorously (2×0.2% SDS, 3x PBS, 3x ddH2O). After the final wash, all supernatant was removed using a flat-bottom tip, and the resin was flash frozen and stored at −80 °C until workup for TMT labeling.
(§1) To remove rapigest, recovered supernatants were acidified with 10% TFA, incubated at 37 °C for 45 minutes, and centrifuged at 14,000 rpm for 15 minutes at 4 °C. Peptides were then desalted by C18, and dried by vacuum centrifugation. Dried peptides were reconstituted in 50 mM pH8.0 TEAB and labeled with TMT reagent at RT for 1 hour. TMT reactions were pooled and treated with hydroxylamine according to the manufacturer’s instructions. Peptide mixtures were then dried, reconstituted in 50 mM ammonium bicarbonate and desalted by SP3[53]. Eluted peptides were then analyzed by nanoflow LC-MS/MS as described[64] with a NanoAcquity UPLC system (Waters, Milford, MA) interfaced to a QExactive HF mass spectrometer (Thermofisher Scientific, San Jose, CA). TMT labeled peptides were injected onto a precolumn (4 cm POROS 10R2, Applied Biosystems, Framingham, MA), resolved on an analytical column (30 µm I.D. × 50 cm packed with 5 µm Monitor C18) and introduced to the mass spectrometer by ESI (spray voltage = 3.5 kV, flow rate ~30 nL/min). The mass spectrometer was operated in data dependent mode such that the 15 most abundant ions in each MS scan (m/z 300–2000, 120 K resolution, target = 3E6, lock mass for 445.120025 enabled) were subjected to MS/MS (m/z 100–2000, 30 K resolution, target = 1E5, max fill time = 100 ms). Dynamic exclusion was selected with a repeat count of 1 and an exclusion time of 30 seconds. MS/MS data was extracted to.mgf using mulitplierz scripts[54],[55] and searched against a forward-reverse human NCBI refseq database using Mascot version 2.6. Search parameters specified fixed carbamidomethylation of cysteine, fixed N-terminal and lysine TMT labelling, and variable oxidation (methionine). Additional multiplierz scripts were used to filter results to 1% FDR and derive protein-level aggregate reporter ion intensities using peptides mapping uniquely into the genome.

RPS19 = biological target: T2, RPS19 (Homo sapiens, UniProt P39019); test: XL177A-DTB chemoproteomic profiling with XL177A competition, RPS19; assay type: binding; conditions: RPS19 reporter ion intensity
T2 construct: endogenous in cells; host or cells: HEK 293AD lysate
Method: HEK 293AD cells were lysed as described above, and the lysate was cleared by centrifugation. Samples were diluted to 10 mg/mL, and 200 μL lysate (2 mg protein total) was incubated with the indicated concentrations of XL177A for 4 hours at RT, then 2 μM of WH114A for 4 additional hours. SDS was added to a final concentration of 1.2% (27.2 μL of a 10% stock), and denatured by heating to 80 °C for 5 minutes. After cooling to RT, 1125 μL 1X PBS was added to dilute the final SDS concentration to 0.2%. 50 μL streptavidin agarose slurry was added to each sample, followed by incubation at RT for 3 hours. After streptavidin enrichment, samples were washed vigorously (2×0.2% SDS, 3x PBS, 3x ddH2O). After the final wash, all supernatant was removed using a flat-bottom tip, and the resin was flash frozen and stored at −80 °C until workup for TMT labeling.
as §1

[1] = XL177A-DTB pulldown, HEK293AD lysate pre-treated 100nM XL177A
[2] = XL177A-DTB pulldown, HEK293AD lysate pre-treated 1uM XL177A
[3] = XL177A-DTB pulldown, HEK293AD lysate pre-treated 10uM XL177A
[4] = average of Run 1 and Run 2, 100nM XL177A
[5] = average of Run 1 and Run 2, 1uM XL177A
[6] = average of Run 1 and Run 2, 10uM XL177A

CN1CCN(CCC(=O)Nc2ccc3c(=O)n(CC4(O)CCN(C(=O)[C@@H](CCCNC(=O)c5ccc6c(Cl)c7c(nc6c5)CCCC7)Cc5ccccc5)CC4)cnc3c2)CC1 [XL177A]
Run 1 100nM 1 (BZW2; [1]): 6095061 | Run 1 100nM 2 (BZW2; [1]): 5618739 | Run 1 100nM 3 (BZW2; [1]): 5891848 | Run 2 100nM 1 (BZW2; [1]): 6367486 | Run 2 100nM 2 (BZW2; [1]): 5770311 | Run 2 100nM 3 (BZW2; [1]): 6244557 | Run 1 1uM 1 (BZW2; [2]): 5512643 | Run 1 1uM 2 (BZW2; [2]): 3810437 | Run 1 1uM 3 (BZW2; [2]): 5451627 | Run 2 1uM 1 (BZW2; [2]): 5833621 | Run 2 1uM 2 (BZW2; [2]): 3936167 | Run 2 1uM 3 (BZW2; [2]): 5735390 | Run 1 10uM 1 (BZW2; [3]): 4021260 | Run 1 10uM 2 (BZW2; [3]): 4066194 | Run 2 10uM 1 (BZW2; [3]): 4140296 | Run 2 10uM 2 (BZW2; [3]): 4394498 | AVE 100nM 1 (BZW2; [4]): 6231274 | AVE 100nM 2 (BZW2; [4]): 5694525 | AVE 100nM 3 (BZW2; [4]): 6068202 | AVE 1uM 1 (BZW2; [5]): 5673132 | AVE 1uM 2 (BZW2; [5]): 3873302 | AVE 1uM 3 (BZW2; [5]): 5593508 | AVE 10uM 1 (BZW2; [6]): 4080778 | AVE 10uM 2 (BZW2; [6]): 4230346 | Run 1 100nM 1 (RPS19; [1]): 201720 | Run 1 100nM 2 (RPS19; [1]): 193904 | Run 1 100nM 3 (RPS19; [1]): 198261 | Run 2 100nM 1 (RPS19; [1]): 185482 | Run 2 100nM 2 (RPS19; [1]): 186116 | Run 2 100nM 3 (RPS19; [1]): 181339 | Run 1 1uM 1 (RPS19; [2]): 206285 | Run 1 1uM 2 (RPS19; [2]): 969196 | Run 1 1uM 3 (RPS19; [2]): 327663 | Run 2 1uM 1 (RPS19; [2]): 160877 | Run 2 1uM 2 (RPS19; [2]): 741636 | Run 2 1uM 3 (RPS19; [2]): 244076 | Run 1 10uM 1 (RPS19; [3]): 152789 | Run 1 10uM 2 (RPS19; [3]): 213160 | Run 2 10uM 1 (RPS19; [3]): 210280 | Run 2 10uM 2 (RPS19; [3]): 197443 | AVE 100nM 1 (RPS19; [4]): 193601 | AVE 100nM 2 (RPS19; [4]): 190010 | AVE 100nM 3 (RPS19; [4]): 189800 | AVE 1uM 1 (RPS19; [5]): 183581 | AVE 1uM 2 (RPS19; [5]): 855416 | AVE 1uM 3 (RPS19; [5]): 285870 | AVE 10uM 1 (RPS19; [6]): 181534 | AVE 10uM 2 (RPS19; [6]): 205302
